Source: patent US7169789B2 (Kirin Beer Kabushiki Kaisha, priority 1999, dated 2007)
pIC50: −log10 of the molar value.

Tests used:
Human glioma cells GL07 = test: Antitumor effect on human glioma cells (GL07) transplanted into nude mice; assay type: in vivo; conditions: Mus musculus, Glioma cell, 216 h, GL07, oral, 20 mg/kg once a day for 9 days, read-out: TGIR, % (tumor growth inhibition rate)
Procedure, shortened: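 GL07 xenografts in nude mice, grouped (n=4) at ~100 mm^3 tumor volume. Test compound 20 mg/kg p.o. or i.p. once daily for 9 days; vehicle controls. TGIR = (1−Tx/Cx)×100 from tumor volumes normalized to day-of-start volume = 1.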

human KDR = target: T1, human KDR (Homo sapiens, UniProt P35968); test: Inhibitory activity against KDR phosphorylation by ELISA; assay type: cell-based; conditions: NIH 3T3 cells transfected with human KDR, VEGF 100 ng/ml
T1 construct: expressed in transfected cells; host or cells: NIH 3T3 cells (Sawano A et al., Cell Growth & Differentiation 7, 213-221 (1996))
T1 sequence (P35968 20-1356): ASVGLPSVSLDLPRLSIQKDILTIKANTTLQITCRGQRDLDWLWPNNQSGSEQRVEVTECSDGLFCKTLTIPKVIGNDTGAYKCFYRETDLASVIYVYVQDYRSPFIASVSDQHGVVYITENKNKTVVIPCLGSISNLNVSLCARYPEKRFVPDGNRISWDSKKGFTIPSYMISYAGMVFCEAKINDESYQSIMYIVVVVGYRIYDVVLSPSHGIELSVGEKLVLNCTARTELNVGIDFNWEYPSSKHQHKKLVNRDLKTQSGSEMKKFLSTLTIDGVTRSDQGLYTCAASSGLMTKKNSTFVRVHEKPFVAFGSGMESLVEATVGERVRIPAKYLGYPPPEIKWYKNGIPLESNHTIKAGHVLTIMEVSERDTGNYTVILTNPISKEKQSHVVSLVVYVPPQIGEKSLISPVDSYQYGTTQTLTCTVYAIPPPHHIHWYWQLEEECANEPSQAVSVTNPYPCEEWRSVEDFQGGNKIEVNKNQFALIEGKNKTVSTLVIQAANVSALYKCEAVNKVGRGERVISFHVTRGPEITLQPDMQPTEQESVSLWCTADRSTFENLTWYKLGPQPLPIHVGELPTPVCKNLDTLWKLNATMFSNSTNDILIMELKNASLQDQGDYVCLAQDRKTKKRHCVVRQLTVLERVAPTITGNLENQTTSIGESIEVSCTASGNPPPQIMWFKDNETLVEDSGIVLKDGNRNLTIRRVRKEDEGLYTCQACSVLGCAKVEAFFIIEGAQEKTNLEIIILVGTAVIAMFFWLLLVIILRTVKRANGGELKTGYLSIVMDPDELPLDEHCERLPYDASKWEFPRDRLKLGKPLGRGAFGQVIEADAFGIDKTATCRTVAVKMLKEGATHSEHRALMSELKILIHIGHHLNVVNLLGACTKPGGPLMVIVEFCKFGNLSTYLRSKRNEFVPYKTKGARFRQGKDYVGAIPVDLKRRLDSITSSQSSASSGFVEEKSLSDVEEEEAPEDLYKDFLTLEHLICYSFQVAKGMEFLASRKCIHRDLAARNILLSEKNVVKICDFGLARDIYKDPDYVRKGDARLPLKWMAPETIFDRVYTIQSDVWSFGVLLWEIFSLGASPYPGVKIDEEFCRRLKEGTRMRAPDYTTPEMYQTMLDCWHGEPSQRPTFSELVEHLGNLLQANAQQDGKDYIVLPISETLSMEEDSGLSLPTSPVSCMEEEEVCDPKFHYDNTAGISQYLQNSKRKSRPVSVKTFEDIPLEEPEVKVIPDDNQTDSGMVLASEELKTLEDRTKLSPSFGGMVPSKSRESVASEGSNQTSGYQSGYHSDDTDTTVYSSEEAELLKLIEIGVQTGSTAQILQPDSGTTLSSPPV

[1] = tested on: activation of MAPK within vascular endothelial cells induced by VEGF stimulation; test: Inhibitory activity against activation of MAPK within vascular endothelial cells induced by VEGF stimulation; assay type: cell-based; conditions: Endothelial cell; human funicular venous vascular endothelial cells, VEGF 50 ng/ml, phosphorylated MAPK by immunoblotting
Protocol: Measurement of Inhibitory Activity Against Activation of MAPK Within Vascular Endothelial Cells Induced by VEGF Stimulation
Human funicular venous vascular endothelial cells (purchased from Chronetics) were cultured in an EGM-2 medium (purchased from Chronetics) within an incubator containing 5% carbon dioxide until 50 to 70% confluent, and the culture was inoculated into wells, containing the same medium, in a 96-well flat-bottom plate in an amount of 1.5×10^5 per well. After cultivation at 37° C. overnight, the medium was replaced by an EBM-2 medium containing 0.5% fetal calf serum (purchased from Chronetics), followed by cultivation for 24 hr. A solution of the test compound in dimethyl sulfoxide was added to each well, and the cultivation was continued at 37° C. for additional one hr. A human recombinant vascular endothelial growth factor (hereinafter abbreviated to “VEGF”) was added to a final concentration of 50 ng/ml, and the stimulation of cells was carried out at 37° C. for 8 min. The medium was removed, the cells were washed with phosphate buffered saline (pH 7.4), and 10 μl of a solubilization buffer (Tris buffered saline (pH 7.4) containing 1% Triton X100, 2 mM sodium orthovanadylate, and 1 mM disodium ethylenediaminetetraacetate) was then added thereto. The mixture was shaken at 4° C. for one hr to solubilize the cells. An equal amount of Tris buffered saline containing 1% sodium laurylsulfate was added to and thoroughly mixed with the solution. This solution (2 μl) was adsorbed on a PVDF filter by dot blotting, and this filter was subjected to immunoblotting with anti-tyrosine phosphorylated MAPK antibody (purchased from Daiichi Pure Chemicals).
The level of phosphorylated MAPK was quantitatively determined with a densitometer, and the percentage phosphorylated MAPK in the presence of the test compound was determined by presuming the level of phosphorylated MAPK with the addition of VEGF in the absence of the test compound to be 100% and the level of phosphorylated MAPK in the absence of the test compound and VEGF to be 0%. The test compound concentration (IC50) necessary for inhibiting 50% of the activation of MAPK was calculated based on the percentage of phosphorylated MAPK.

pIC50 (human KDR) | pIC50 [1] | Structure (SMILES) | inhibition in vivo at 20 mg/kg (Human glioma cells GL07) [%]
8.41 | 8.28 | COc1cc2ncnc(Oc3ccc(NC(=O)Nc4ccc(F)cc4F)c(C)c3)c2cc1OC [Example 104, N-(2,4-Difluorophenyl)-N′-{4-[(6,7-dimethoxy-4-quinazolinyl)oxy]-2-methylphenyl}urea] | 22
7.62 | 7.35 | CCCCNC(=O)Nc1ccc(Oc2ncnc3cc(OC)c(OC)cc23)cc1F [Example 89, N-Butyl-N′-{4-[(6,7-dimethoxy-4-quinazolinyl)oxy]-2-fluorophenyl}urea] | 40
7.60 | 8.06 | COc1cc2ncnc(Oc3ccc(NC(=O)Nc4ccc(F)cc4F)cc3C)c2cc1OC [Example 99, N-(2,4-Difluorophenyl)-N′-{4-[(6,7-dimethoxy-4-quinazolinyl)oxy]-3-methylpenyl}urea] | 33
7.96 | 8.22 | COc1cc2ncnc(Oc3ccc(NC(=O)Nc4ccccc4C)cc3)c2cc1OC [Example 74, N-{4-[(6,7-Dimethoxy-4-quinazolinyl)oxy]-phenyl}-N′-(2-methylphenyl)urea] | 28
7.89 | 8.28 | COc1cc2ncnc(Oc3ccc(NC(=O)Nc4ccc(F)cc4)cc3C)c2cc1OC [Example 100, N-{4-[(6,7-Dimethoxy-4-quinazolinyl)oxy)-3-methylphenyl}-N′-(4-fluorophenyl)urea] | 36
8.08 | 8.42 | COc1cc2ncnc(Oc3ccc(NC(=O)NCc4ccc(F)cc4F)c(Cl)c3)c2cc1OC [Example 82, N-{2-Chloro-4-[(6,7-dimethoxy-4-quinazolinyl)oxy]phenyl}-N′-(2,4-difluorobenzyl)urea] | 27
7.20 | 6.46 | CCC(C)NC(=O)Nc1ccc(Oc2ncnc3cc(OC)c(OC)cc23)cc1 (centres unmarked) [Example 67, N-(sec-Butyl)-N′-{4-[(6,7-dimethoxy-4-quinazolinyl)oxy]phenyl}urea] | 30
6.08 | < 6.00 | COc1cc2ncnc(Oc3ccc(NC(=O)N(C)c4ccccn4)c(Cl)c3)c2cc1OC [Example 83] | 31
7.49 | 8.17 | COc1cc2ncnc(Oc3ccc(NC(=O)NCc4ccc(F)cc4F)cc3)c2cc1OC [Example 70, N-(2,4-Difluorobenzyl)-N′-{4-[(6,7-dimethoxy-4-quinazolinyl)oxy]phenyl}urea] | –
6.82 | 7.15 | CCNC(=O)Nc1ccc(Oc2ncnc3cc(OC)c(OC)cc23)cc1 [Example 63, N-{4-[(6,7-Dimethoxy-4-quinazolinyl)oxy]-phenyl}-N′-ethylurea] | –
8.46 | 8.10 | CCNC(=O)Nc1ccc(Oc2ncnc3cc(OC)c(OC)cc23)cc1Cl [Example 76, N-{2-chloro-4-[(6,7-dimethoxy-4-quinazolinyl)-oxy]phenyl}-N′-ethylurea] | –
8.85 | 8.92 | COc1ccccc1NC(=O)Nc1ccc(Oc2ncnc3cc(OC)c(OC)cc23)cc1 [Example 75, N-{4-[(6,7-Dimethoxy-4-quinazolinyl)oxy]-phenyl}-N′-(2-methoxyphenyl)urea] | –
8.82 | 9.22 | COc1ccccc1NC(=O)Nc1ccc(Oc2ncnc3cc(OC)c(OC)cc23)cc1Cl [Example 86, N-{2-Chloro-4-[(6,7-dimethoxy-4-quinazolinyl)oxy]phenyl}-N′-(2-methoxyphenyl)urea] | –
6.96 | 7.24 | COc1cc2ncnc(Oc3ccc(NC(=O)Nc4ccc(Cl)cn4)c(Cl)c3)c2cc1OC [Example 87, N-{2-Chloro-4-[(6,7-dimethoxy-4-quinazolinyl)oxy]phenyl}-N′-(5-chloro-2-pyridyl)urea] | –
8.42 | 8.57 | COc1cc2ncnc(Oc3ccc(NC(=O)Nc4ccccc4C)c(F)c3)c2cc1OC [Example 95, N-{4-[(6,7-Dimethoxy-4-quinazolinyl)oxy]-2-fluorophenyl}-N′-(2-methylphenyl)urea] | –
